This experiment deals with T1, ATM (Homo sapiens, UniProt Q13315).
T1 construct: endogenous in cells; host or cells: HT29 cells (ECACC #85061109)
Briefly: Assay a): ATM cellular potency (pATM Ser1981 in irradiated HT29 cells). Format: cell-based. The following applies: 1 h compound incubation, X-ray irradiation ~600 cGy, pATM (Ser1981) staining 1 h later; read-out: Assay a) ATM Cell IC50. The method, then: IC50 values were calculated using a smart fitting model in Genedata.
Most ATM molecules in the cell are rapidly phosphorylated on this site after doses of radiation as low as 0.5 Gy, and binding of a phosphospecific antibody is detectable after the introduction of only a few DNA double-strand breaks in the cell.
The rationale of the pATM assay is to identify inhibitors of ATM in cells. HT29 cells are incubated with test compounds for 1 hr prior to X-ray-irradiation. 1 h later the cells are fixed and stained for pATM (Ser1981). The fluorescence is read on the arrayscan imaging platform.
The following morning compounds of Formula (I) in 100% DMSO were added to assay plates by acoustic dispensing. After 1 h incubation at 37° C. and 5% CO2, plates (up to 6 at a time) were irradiated using the X-RAD 320 instrument (PXi) with equivalent to ˜600 cGy. Plates were returned to the incubator for a further 1 h. […] Then 20 μl of 0.1% Triton X100 in PBS was added and incubated for 20 minutes at r.t., to permeabalise cells. Then the plates were washed once with 50 μl/well PBS, using a Biotek EL405 plate washer.
After 1 h incubation at r.t., the plates were washed three times with 50 μl/well PBS, using a Biotek EL405 plate washer, and plates were sealed and kept in PBS at 4° C. until read. Plates were read using an ArrayScan VTI instrument, using an XF53 filter with 10× objective.

By IC50 is commonly meant the midpoint of a concentration-inhibition curve.

T1 sequence (Q13315 whole entry): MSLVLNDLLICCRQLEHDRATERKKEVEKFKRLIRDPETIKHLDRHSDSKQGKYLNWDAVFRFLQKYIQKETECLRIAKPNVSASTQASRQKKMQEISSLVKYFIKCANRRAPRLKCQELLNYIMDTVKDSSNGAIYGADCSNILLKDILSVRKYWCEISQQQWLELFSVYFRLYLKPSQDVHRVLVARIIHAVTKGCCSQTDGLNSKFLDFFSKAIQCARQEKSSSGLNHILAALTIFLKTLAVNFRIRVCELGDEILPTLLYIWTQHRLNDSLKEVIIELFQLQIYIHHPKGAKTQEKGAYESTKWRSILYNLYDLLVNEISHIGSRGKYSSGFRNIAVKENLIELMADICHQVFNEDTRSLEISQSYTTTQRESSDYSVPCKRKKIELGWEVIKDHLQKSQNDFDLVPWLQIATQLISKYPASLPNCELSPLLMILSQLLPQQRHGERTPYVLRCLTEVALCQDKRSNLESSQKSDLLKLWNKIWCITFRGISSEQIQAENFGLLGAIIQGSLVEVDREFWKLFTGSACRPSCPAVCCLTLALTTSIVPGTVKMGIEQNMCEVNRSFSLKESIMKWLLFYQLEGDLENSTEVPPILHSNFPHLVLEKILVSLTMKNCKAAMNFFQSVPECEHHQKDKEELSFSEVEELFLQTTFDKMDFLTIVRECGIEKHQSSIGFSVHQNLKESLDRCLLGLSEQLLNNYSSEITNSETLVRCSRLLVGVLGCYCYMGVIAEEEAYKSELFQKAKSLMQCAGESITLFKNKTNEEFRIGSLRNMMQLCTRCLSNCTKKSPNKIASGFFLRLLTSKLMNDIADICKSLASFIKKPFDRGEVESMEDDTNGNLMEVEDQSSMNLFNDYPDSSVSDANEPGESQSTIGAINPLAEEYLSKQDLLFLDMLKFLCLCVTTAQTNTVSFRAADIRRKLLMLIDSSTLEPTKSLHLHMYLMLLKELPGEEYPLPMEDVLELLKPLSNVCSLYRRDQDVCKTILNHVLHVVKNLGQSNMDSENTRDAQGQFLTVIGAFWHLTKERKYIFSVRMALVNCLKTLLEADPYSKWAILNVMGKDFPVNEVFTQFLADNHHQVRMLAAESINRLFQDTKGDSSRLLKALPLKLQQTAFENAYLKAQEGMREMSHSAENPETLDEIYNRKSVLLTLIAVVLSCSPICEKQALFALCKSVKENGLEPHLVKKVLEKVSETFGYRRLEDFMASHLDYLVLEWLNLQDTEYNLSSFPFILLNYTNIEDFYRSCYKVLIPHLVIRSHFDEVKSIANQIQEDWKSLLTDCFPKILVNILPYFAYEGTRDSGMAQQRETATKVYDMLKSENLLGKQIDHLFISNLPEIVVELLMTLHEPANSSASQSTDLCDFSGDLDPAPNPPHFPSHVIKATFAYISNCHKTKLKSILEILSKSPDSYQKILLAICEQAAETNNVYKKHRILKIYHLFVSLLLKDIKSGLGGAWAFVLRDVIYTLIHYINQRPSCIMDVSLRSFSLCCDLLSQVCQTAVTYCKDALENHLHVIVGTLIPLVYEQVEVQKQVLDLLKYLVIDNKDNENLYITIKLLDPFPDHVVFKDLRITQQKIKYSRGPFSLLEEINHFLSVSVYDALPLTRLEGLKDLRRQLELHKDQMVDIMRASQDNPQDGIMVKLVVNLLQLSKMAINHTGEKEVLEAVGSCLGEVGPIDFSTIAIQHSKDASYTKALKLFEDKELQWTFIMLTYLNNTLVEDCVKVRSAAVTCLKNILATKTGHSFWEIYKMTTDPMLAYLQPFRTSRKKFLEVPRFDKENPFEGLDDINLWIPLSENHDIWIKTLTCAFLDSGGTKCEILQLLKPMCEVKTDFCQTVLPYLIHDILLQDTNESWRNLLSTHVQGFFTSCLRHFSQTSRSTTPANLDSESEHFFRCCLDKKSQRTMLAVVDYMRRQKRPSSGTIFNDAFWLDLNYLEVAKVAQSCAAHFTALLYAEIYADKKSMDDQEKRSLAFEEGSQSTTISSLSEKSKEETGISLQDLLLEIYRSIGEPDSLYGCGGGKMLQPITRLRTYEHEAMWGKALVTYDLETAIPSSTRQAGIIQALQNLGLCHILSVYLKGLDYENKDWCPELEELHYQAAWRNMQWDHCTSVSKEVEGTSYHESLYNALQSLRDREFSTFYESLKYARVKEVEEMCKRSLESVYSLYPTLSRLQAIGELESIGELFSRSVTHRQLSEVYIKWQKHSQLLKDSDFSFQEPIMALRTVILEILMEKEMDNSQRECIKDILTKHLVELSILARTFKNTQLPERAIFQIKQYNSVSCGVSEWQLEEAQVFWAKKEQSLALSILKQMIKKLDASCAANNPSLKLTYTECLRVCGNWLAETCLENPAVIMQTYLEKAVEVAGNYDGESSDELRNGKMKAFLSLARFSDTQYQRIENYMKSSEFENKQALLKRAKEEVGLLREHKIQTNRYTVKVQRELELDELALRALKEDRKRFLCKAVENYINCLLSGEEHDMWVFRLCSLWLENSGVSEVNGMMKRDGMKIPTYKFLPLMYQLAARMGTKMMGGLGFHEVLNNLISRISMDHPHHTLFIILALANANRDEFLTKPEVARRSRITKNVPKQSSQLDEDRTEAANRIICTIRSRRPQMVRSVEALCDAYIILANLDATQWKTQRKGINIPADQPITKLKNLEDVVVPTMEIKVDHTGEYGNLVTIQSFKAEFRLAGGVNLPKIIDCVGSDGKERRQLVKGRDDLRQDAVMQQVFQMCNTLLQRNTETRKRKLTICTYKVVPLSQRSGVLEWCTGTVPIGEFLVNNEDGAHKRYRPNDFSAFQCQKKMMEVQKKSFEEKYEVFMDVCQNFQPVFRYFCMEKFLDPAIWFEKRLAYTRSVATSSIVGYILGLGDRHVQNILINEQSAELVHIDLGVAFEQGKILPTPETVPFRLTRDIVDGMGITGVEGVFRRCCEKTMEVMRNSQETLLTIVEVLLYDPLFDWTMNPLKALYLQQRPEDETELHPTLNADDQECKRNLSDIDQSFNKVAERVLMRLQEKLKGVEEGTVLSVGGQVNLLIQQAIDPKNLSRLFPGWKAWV

For the compound `CNCCCOc1ccc(-c2ccc3nnc(C(N)=O)c(N[C@@H](C)C4CCOCC4)c3c2)cn1` [Example 4, 6-[6-(3-Methylaminopropoxy)pyridin-3-yl]-4-[[(1S)-1-(oxan-4-yl)ethyl]amino]cinnoline-3-carboxamide], the IC50 was determined as 7.72 nM.

In the case of `CNCCCOc1ccc(-c2ccc3nnc(C(=O)NC)c(N[C@@H](C)C4CCOCC4)c3c2)cn1` [Example 5, N-Methyl-6-[6-(3-methylaminopropoxy)pyridin-3-yl]-4-[[(1S)-1-(oxan-4-yl)ethyl]amino]cinnoline-3-carboxamide], the IC50 was 4.91 nM.

Source of the values: patent publication US20190099421A1, “CINNOLIN-4-AMINE COMPOUNDS AND THEIR USE IN TREATING CANCER” (AstraZeneca AB, priority 2016, published 2019).
